The numbers were not newly measured in patent US5595896A, “Expression of heterologous genes in transgenic plants and plant cells using plant asparagine synthetase promoters” (New York University, priority 1993, dated 1997), which cites them from elsewhere.

Numbered stars: 1 amine (or outer) side, 2 acyl side, 3 side chain; on linkers, the order of the positions; unused ones are H or OH. Bridge positions count the residues as written; N and C are the ends. Square brackets hold non-standard residues; d marks the D form. Peptide text beside a SMILES is read from it. I, II: the chains in the order shown. Actinocin(9to1) = Cc1c2oc3c(C)ccc(C(=O)[*:1])c3nc-2c(C(=O)[*:2])c(N)c1=O; NMeV = CN[CH](C(=O)O)C(C)C; Sar = CNCC(=O)O

The subject of one data set is PLANT AS.
Details: not given
`CS(=N)(=O)CC[C@H](N)C(=O)O` (stereo partly drawn) [L-methionine-S-sulphoximine]: the “Inhibition (%)” value is recorded as 8.6%.

Still in this data set, the particulars now being: Asparagine analogues, 2 mM.
`CC(C(N)=O)C(N)C(=O)O` (racemic) [β-methyl-DL-asparagine]: the “Inhibition (%)” value was 55.1%.
`N[C@@H](CS(N)(=O)=O)C(=O)O` [2-amino-2-carboxy-L-ethanesulphonamide]: the “Inhibition (%)” value is listed as 42.5%.
In the case of `[N-]=[N+]=CC(=O)C[C@H](N)C(=O)O` [5-diazo-4-oxo-L-norvaline], the “Inhibition (%)” value is reported as 40.3%.
In the case of `CN[C@@H](CC(N)=O)C(=O)O` [N-α-methyl-L-asparagine], the “Inhibition (%)” value is on record as 38.8%.
Consider `NC(=O)[C@H](O)[C@H](N)C(=O)O` [erythro-β-hydroxy-L-asparagine], for which the “Inhibition (%)” value was 59.5%.
Regarding `NC(=O)[C@@H](O)[C@H](N)C(=O)O` [threo β-hydroxy-L-asparagine], the “Inhibition (%)” value is reported as 45.2%.
For the molecule N-ethyl-L-asparagine, the “Inhibition (%)” value is reported as 47.2%.
Turning to N-methyl-L-asparagine, the “Inhibition (%)” value is 57.6%.

The data set is the same for the next values; noted with them: Aspartate analogues, 2 mM.
Consider `NC(=O)[C@H](N)[C@H](N)C(=O)O` (relative stereo) [meso-diaminosuccinamate], for which the “Inhibition (%)” value is on record as 50.6%.
As to `N[C@@H](CC(=O)CBr)C(=O)O` [5-bromo-4-oxo-L-norvaline], the “Inhibition (%)” value is on record as 49.5%.
With `N[C@@H](CC(=O)CCl)C(=O)O` [5-chloro-4-oxo-L-norvaline], the “Inhibition (%)” value was 42.1%.
Take `N[C@H](C(=O)O)[C@@H](O)C(=O)O` [erythro β-hydroxy-L-aspartate]: the “Inhibition (%)” value is 65.4%.
As to `C[C@@H](C(=O)O)[C@H](N)C(=O)O` [erythro β-methyl-L-aspartate], the “Inhibition (%)” value was 51.4%.
Turning to `C[C@H](C(=O)O)[C@H](N)C(=O)O` [threo β-methyl-L-aspartate], the “Inhibition (%)” value was 58.4%.

The same data set, now with this note: Glutamine analogues, 5 mM.
On to 2-hydroxyethyl-L-glutamine, for which the “Inhibition (%)” value is recorded as 31.1%.
As for `NC(=O)CCCC(N)C(=O)O` (racemic) [DL-homoglutamine], the “Inhibition (%)” value is given as 42.4%.
As for `NC(=O)CCC(NC(=O)OCc1ccccc1)C(=O)O` (racemic) [N-CBZ-DL-glutamine], the “Inhibition (%)” value is 30.5%.
On to `NC(=O)CC[C@@H](N)C(=O)O` [D-glutamine], for which the “Inhibition (%)” value is recorded as 14.8%.
Regarding `NC(=O)NC[C@H](N)C(=O)O` [L-albizziine], the “Inhibition (%)” value is 85.2%.
As to `[N-]=[N+]=CC(=O)OC[C@H](N)C(=O)O` [L-azaserine], the “Inhibition (%)” value is given as 97.5%.
For `NC(=O)CC[C@H](N)C(N)=O` [L-glutamate diamide], the “Inhibition (%)” value was 9.1%.
On to `CCOC(=O)CC[C@H](N)C(=O)O` [L-glutamate-γ-ethyl ester], for which the “Inhibition (%)” value is listed as 23.6%.
As to `COC(=O)CC[C@H](N)C(=O)O` [L-glutamate-γ-methyl ester], the “Inhibition (%)” value is listed as 27.2%.
Take `CC(=O)N[C@@H](CCC(N)=O)C(=O)O` [N-acetyl-L-glutamine]: the “Inhibition (%)” value was 10.2%.
As for `NC(=O)SC[C@H](N)C(=O)O` [S-carbamoyl-L-cysteine], the “Inhibition (%)” value was 35.6%.
Take `C=C(C[C@H](N)C(=O)O)C(N)=O` [γ-methylene-L-glutamine]: the “Inhibition (%)” value is given as 20.4%.

The next data set deals with GS. The following applies: toxin produced by P. syringae, coinfected alfalfa plants.
For the molecule `N[C@@H](CCC1(O)CNC1=O)C(=O)O` (stereo partly drawn) [Tabtoxinine β-lactam], the “GS activity inhibited by toxin” value is listed as “severely inhibited”.

In another data set the test system is AS. The conditions noted are these: actinomycin D treatment, cotyledons of germinating cotton seedlings.
As to `Cc1c2oc3c(C)ccc(C(=O)NC4C(=O)NC(C(C)C)C(=O)N5CCCC5C(=O)N(C)CC(=O)N(C)C(C(C)C)C(=O)OC4C)c3nc-2c(C(=O)NC2C(=O)NC(C(C)C)C(=O)N3CCCC3C(=O)N(C)CC(=O)N(C)C(C(C)C)C(=O)OC2C)c(N)c1=O` (centres unmarked) [actinomycin D] (I: TVP[Sar][NMeV] / II: TVP[Sar][NMeV]; ester I:1-I:C, II:1-II:C; linker I:N-II:N via Actinocin(9to1); configuration not given here), the “induction of AS activity” value is “abolished”.
